Broadly, the IC50 is the midpoint of a concentration-inhibition curve.

Molecules are shown by their SMILES.

For the first test, the target named is PD-1/PD-L1 interaction (PD-1-Ig / PD-L1-His) (Homo sapiens (Human), UniProt Q9NZQ7). As to the kind of experiment: PD-1/PD-L1 Homogenous Time-Resolved Fluorescence (HTRF) binding assay. The following applies: PD-1/PD-L1 HTRF binding assay; numeric value; read-out: Range or IC50. Summed up: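 Human PD-L1-His (10 nM final) was pre-incubated with inhibitor for 15 min, then PD-1-Ig (20 nM final) was added for a further 15 min in dPBS with 0.1% BSA and 0.05% Tween-20. Binding was detected by HTRF using Eu-cryptate anti-Ig (1 nM) and APC anti-His (20 nM).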
Sequence of PD-1/PD-L1 interaction (PD-1-Ig / PD-L1-His) (Q9NZQ7 other isoform, or with tags, fused parts or gaps): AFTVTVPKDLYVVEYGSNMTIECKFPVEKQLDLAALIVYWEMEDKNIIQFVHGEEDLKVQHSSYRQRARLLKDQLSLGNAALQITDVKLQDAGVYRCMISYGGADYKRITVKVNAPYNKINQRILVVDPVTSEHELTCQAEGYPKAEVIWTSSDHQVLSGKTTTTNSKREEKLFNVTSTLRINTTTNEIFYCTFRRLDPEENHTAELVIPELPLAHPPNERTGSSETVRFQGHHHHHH
A general note: Time-resolved FRET reads energy transfer from a long-lived donor to a nearby acceptor.
Regarding `CC(=O)NCCNCc1ccc(OCc2cccc(-c3ccccc3)c2C)cc1OCc1cccc(NC(=O)OC(C)(C)C)c1` [Example 1119, tert-butyl (3-((2-(((2-acetamidoethyl)amino)methyl)-5-((2-methyl-[1,1′-biphenyl]-3-yl)methoxy)phenoxy)methyl)phenyl)carbamate], the IC50 was found to be 14200 nM.

The test is the same for the next values; noted with them: PD-1/PD-L1 HTRF binding assay; value given as range class; read-out: Range or IC50.
`Cc1cc(OCc2cccc(-c3ccc4c(c3)OCCO4)c2C)cc(OCc2cncc(C#N)c2)c1CNC[C@@H](O)CC(=O)O` [Example 1006, (S)-4-(2-((5-cyanopyridin-3-yl)methoxy)-4-(3-(2,3-dihydrobenzo[b][1,4]dioxin-6-yl)-2-methylbenzyloxy)-6-methylbenzylamino)-3-hydroxybutanoic acid]: the IC50 is 0.6 to 10 nM.

Take `COc1cc(OCc2cccc(-c3ccccc3)c2C)cc(OCc2cccc(C#N)c2)c1CNC[C@@H](O)CC(=O)O` [Example 1133, (S)-4-((2-((3-cyanobenzyl)oxy)-6-methoxy-4-((2-methyl-[1,1′-biphenyl]-3-yl)methoxy)benzyl)amino)-3-hydroxybutanoic acid]: the IC50 fell in the range of 0.6 to 10 nM.

Take `CC(=O)NCCNCc1cc(Cl)c(OCc2cccc(-c3ccc4c(c3)OCCO4)c2C)cc1OCc1cncc(Br)c1` [Example 1255, N-(2-(2-((5-bromopyridin-3-yl)methoxy)-5-chloro-4-(3-(2,3-dihydrobenzo[b][1,4]dioxin-6-yl)-2-methylbenzyloxy)benzylamino)ethyl)acetamide]: the IC50 was 0.6 to 10 nM.

As to `Cc1cc(OCc2cccc(-c3ccc4c(c3)OCCO4)c2C)cc(OCc2cccc(C#N)c2)c1CNC[C@@H](O)CC(=O)O` [Example 1003, (S)-4-(2-(3-cyanobenzyloxy)-4-(3-(2,3-dihydrobenzo[b][1,4]dioxin-6-yl)-2-methylbenzyloxy)-6-methylbenzylamino)-3-hydroxybutanoic acid], the IC50 fell in the range of 0.6 to 10 nM.

Take `CC(=O)NCCNCc1ccc(OCc2cccc(-c3ccccc3)c2C)cc1OCc1ccc(S(C)(=O)=O)cc1` [Example 1084, N-(2-((4-((2-methyl-[1,1′-biphenyl]-3-yl)methoxy)-2-((4-(methylsulfonyl)benzyl)oxy)benzyl)amino)ethyl)acetamide]: the IC50 fell in the range of 100 to 20000 nM.

On to `Cc1c(COc2cc(OCc3cncc(C#N)c3)c(CN3CCCC[C@H]3C(=O)NS(C)(=O)=O)cc2Cl)cccc1-c1ccc2c(c1)OCCO2` [Example 1256, (S)-1-(5-chloro-2-((5-cyanopyridin-3-yl)methoxy)-4-((3-(2,3-dihydrobenzo[b][1,4]dioxin-6-yl)-2-methylbenzyl)oxy)benzyl)-N-(methylsulfonyl)piperidine-2-carboxamide], for which the IC50 fell in the range of 0.6 to 10 nM.

For `Cc1cc(CN[C@@](C)(CO)C(=O)O)c(OCc2cncc(C#N)c2)cc1OCc1cccc(-c2ccc3c(c2)OCCO3)c1C#N` [Example 1308, (S)-2-(4-(2-cyano-3-(2,3-dihydrobenzo[b][1,4]dioxin-6-yl)benzyloxy)-2-((5-cyanopyridin-3-yl)methoxy)-5-methylbenzylamino)-3-hydroxy-2-methylpropanoic acid], the IC50 fell in the range of 0.6 to 10 nM.

For `Cc1c(COc2ccc(CN3CCCC[C@H]3C(=O)O)c(OCc3cccc(C#N)c3)c2Cl)cccc1-c1ccccc1` [Example 1233, (S)-1-(3-chloro-2-(3-cyanobenzyloxy)-4-((2-methylbiphenyl-3-yl)methoxy)benzyl)piperidine-2-carboxylic acid], the IC50 lay in the range of 100 to 20000 nM.

Consider `CC(=O)NCCNCc1ccc(OCc2cccc(-c3ccc4c(c3)OCCO4)c2C)cc1OCc1cc(C#N)ccn1` [Example 1130, N-(2-(2-((4-cyanopyridin-2-yl)methoxy)-4-(3-(2,3-dihydrobenzo[b][1,4]dioxin-6-yl)-2-methylbenzyloxy)benzylamino)ethyl)acetamide], for which the IC50 was 10 to 100 nM.

`Cc1c(COc2cc(OCc3cccc(C#N)c3)c(CNC3(C(=O)O)CC3)cc2Cl)cccc1-c1ccc2c(c1)OCCO2` [Example 1177, 1-((5-chloro-2-((3-cyanobenzyl)oxy)-4-((3-(2,3-dihydrobenzo[b][1,4]dioxin-6-yl)-2-methylbenzyl)oxy)benzyl)amino)cyclopropanecarboxylic acid]: the IC50 was in the range of 0.6 to 10 nM.

As for `CC(=O)NCCNCc1ccc(OCc2cccc(-c3ccccc3)c2C)cc1OCc1cc(C)cc(C)c1` [Example 1065, N-(2-((2-((3,5-dimethylbenzyl)oxy)-4-((2-methyl-[1,1′-biphenyl]-3-yl)methoxy)benzyl)amino)ethyl)acetamide], the IC50 was 100 to 20000 nM.

Regarding `Cc1c(COc2cc(OCc3cncc(C#N)c3)c(CN[C@H](CO)C(=O)O)cc2F)cccc1-c1ccc2c(c1)OCCO2` [Example 3000], the 50% inhibitory concentration (IC50) was in the range of 0.6 to 10 nM.

In the case of `Cc1c(COc2cc(OCc3cncc(C#N)c3)c(CN[C@@H](CCCCN)C(=O)O)cc2Cl)cccc1-c1ccc2c(c1)OCCO2` [Example 2004, (S)-6-amino-2-((5-chloro-2-((5-cyanopyridin-3-yl)methoxy)-4-((3-(2,3-dihydrobenzo[b][1,4]dioxin-6-yl)-2-methylbenzyl)oxy)benzyl)amino)hexanoic acid], the IC50 was 0.6 to 10 nM.

In the case of `Cc1c(COc2ccc(CN3CCCC[C@H]3C(=O)O)c(OCc3cc(C#N)ccn3)c2)cccc1-c1ccc2c(c1)OCCO2` [Example 1132, (S)-1-(2-((4-cyanopyridin-2-yl)methoxy)-4-(3-(2,3-dihydrobenzo[b][1,4]dioxin-6-yl)-2-methylbenzyloxy)benzyl)piperidine-2-carboxylic acid], the IC50 lay in the range of 10 to 100 nM.

Take `N#Cc1cccc(COc2cc(OCc3cccc(-c4ccc5c(c4)OCCO5)c3Cl)ccc2CN2CCCC[C@H]2C(=O)O)c1` [Example 1145, (S)-1-(4-(2-chloro-3-(2,3-dihydrobenzo[b][1,4]dioxin-6-yl)benzyloxy)-2-(3-cyanobenzyloxyl)benzyl)piperidine-2-carboxylic acid]: the IC50 was 10 to 100 nM.

In the case of `CC(=O)NCCNCc1ccc(OCc2cccc(-c3ccccc3)c2C)cc1OCCc1ccccc1` [Example 1033, N-(2-((4-((2-methyl-[1,1′-biphenyl]-3-yl)methoxy)-2-phenethoxybenzyl)amino)ethyl)acetamide], the IC50 lay in the range of 100 to 20000 nM.

Turning to `Cc1c(COc2cc(OCC(N)=O)c(CN[C@@H](CO)C(=O)O)cc2Cl)cccc1-c1ccc2c(c1)OCCO2` [Example 3030, (S)-2-((2-(2-amino-2-oxoethoxy)-5-chloro-4-((3-(2,3-dihydrobenzo[b][1,4]dioxin-6-yl)-2-methylbenzyl)oxy)benzyl)amino)-3-hydroxypropanoic acid], the IC50 fell in the range of 0.6 to 10 nM.

With `Cc1c(COc2cc(OCc3cccc(C#N)c3)c(CNC(Cc3ccccc3O)C(=O)O)cc2Cl)cccc1-c1ccc2c(c1)OCCO2` (stereo not drawn) [Example 1181, 2-((5-chloro-2-((3-cyanobenzyl)oxy)-4-((3-(2,3-dihydrobenzo[b][1,4]dioxin-6-yl)-2-methylbenzyl)oxy)benzyl)amino)-3-(2-hydroxyphenyl)propanoic acid], the IC50 lay within 10 to 100 nM.

For the molecule `CC(=O)NCCNCc1ccc(OCc2cccc(-c3ccccc3)c2C)cc1OCc1ccc2cn[nH]c2c1` [Example 1102, N-(2-((2-((1H-indazol-6-yl)methoxy)-4-((2-methyl-[1,1′-biphenyl]-3-yl)methoxy)benzyl)amino)ethyl)acetamide], the IC50 was 100 to 20000 nM.

For `CC(=O)NCCNCc1ccc(OCc2cccc(-c3ccccc3)c2C)cc1OCc1ccc(C(C)=O)cc1` [Example 1040, N-(2-((2-((4-acetylbenzyl)oxy)-4-((2-methyl-[1,1′-biphenyl]-3-yl)methoxy)benzyl)amino)ethyl)acetamide], the IC50 lay in the range of 100 to 20000 nM.

(Values after patent publication US9850225B2, “Compounds useful as immunomodulators” (BRISTOL-MYERS SQUIBB COMPANY, priority 2014, dated 2017).)
